Tests used:
hOAT3 = target: T1, hOAT3 (Homo sapiens, UniProt Q8TCC7); assay: In vitro uptake assay in hOAT3-HEK293 cells; conditions: M8 10 µM; for inhibition of the uptake of ETV in hOAT3-HEK293 cells / substrate of hOAT3 (uptake in hOAT3-HEK293 vs mock-HEK293 cells): Y101 2.0 µM; for substrate of hOAT3 (uptake in hOAT3-HEK293 vs mock-HEK293 cells): ES 10 µM
T1 sequence (Q8TCC7 1-542): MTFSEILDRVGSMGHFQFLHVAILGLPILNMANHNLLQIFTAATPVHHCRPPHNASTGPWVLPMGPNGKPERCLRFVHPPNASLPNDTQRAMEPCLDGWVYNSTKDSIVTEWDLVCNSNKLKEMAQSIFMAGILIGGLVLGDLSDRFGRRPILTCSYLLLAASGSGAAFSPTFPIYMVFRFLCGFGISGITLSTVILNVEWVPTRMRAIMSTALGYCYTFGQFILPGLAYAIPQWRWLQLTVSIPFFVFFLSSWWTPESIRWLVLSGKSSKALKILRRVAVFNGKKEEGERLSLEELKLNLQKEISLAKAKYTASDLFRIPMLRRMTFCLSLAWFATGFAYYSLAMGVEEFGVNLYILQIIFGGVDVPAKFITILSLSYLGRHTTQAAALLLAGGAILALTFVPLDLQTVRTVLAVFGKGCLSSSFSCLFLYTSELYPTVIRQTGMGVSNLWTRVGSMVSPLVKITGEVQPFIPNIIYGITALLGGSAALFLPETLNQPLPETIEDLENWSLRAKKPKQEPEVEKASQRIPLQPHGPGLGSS
Procedure: The hOAT1-HEK293, hOAT3-HEK293 and mock cells were cultured in Dulbecco modified Eagle medium (DMEM) containing 10% fetal bovine serum (FBS) and 1% penicillin/streptomycin in an atmosphere of 5% CO2 air at 37 °C. The HEK293 cells were plated on 24-well plates at a density of 5 × 10^5 cells/well. […] Uptake assay was initiated by adding 1 mL of the transporter buffer containing Y101, M8, ETV or probe substrate. Following incubation with gentle shaking, the uptake was terminated at designated time by removing the transporter buffer and washing cells three times with 1 mL of ice-cold HBSS. Next, substrates of Y101, M8, ETV, PAH and ES in cell monolayer were released by lysing the cells with 0.3 mL of 0.1% Triton X-100 for 2 h and determined by liquid chromatography–tandem mass spectrometry (LC–MS/MS). In the time-course uptake assay, Y101 (2.0 µM) and M8 (10 µM) in the presence or absence of PRO (100 µM) were measured in hOAT1-HEK293, hOAT3-HEK293 and mock cells. The concentration-dependent uptake of M8 was determined in hOAT3-HEK293 cells, and incubation time (5 min) was optimized. The uptake of M8 (10 µM) with or without ETV was examined in hOAT3-HEK293 cells. The uptake of ETV (10 µM) with or without Y101 or M8 was also measured in hOAT1-HEK293 and hOAT3-HEK293 cells, respectively. Furthermore, PAH and ES at concentrations of 10 µM were used as positive control in hOAT1-HEK293 and hOAT3-HEK293 cells, respectively. Protein concentrations were measured by the bicinchoninic acid procedure (Solarbio, Beijing, China) using bovine serum albumin as the standard.
(§1) Biological samples were prepared as previously described. Aliquots (50 µL) of urine, plasma, kidney homogenates, or cell lysates were individually mixed with 150 µL methanol and 50 µL working solution of internal standard (acetaminophen or bestatin), followed by vortexing for 1 min and centrifuging at 13,800 g for 10 min. […] The resulting supernatant (1 µL) was subjected to LC-MS/MS for the assessment of Y101, M8, M9 and ETV, respectively. […] The concentrations of ETV, Y101, M8 and M9 were determined by an AB QTRAP 5500 LC–MS/MS System (Foster City, CA, USA) as previously described. Chromatographic separation was achieved on an Infinitylab Poroshell 120 EC-C18 (50 mm × 2.1 mm, 2.7 µm, Agilent Technology Inc., CA, USA) at 40 °C. The mobile phase consisted of formic acid-acetonitrile (0.05:100, v/v) and a mixture of 1 mmol-ammonium acetate-acetonitrile-formic acid (95:5:0.05, v/v/v) at a flow rate of 0.3 mL/min. […] Analyst1.5.2 software was used for data processing and analysis.

rat kidney slices = assay: In vitro uptake assay in kidney slices; assay type: in vitro ADME; conditions: for time and temperature dependence of uptake in kidney slices: 37 °C vs 4 °C, M9 1.0 µM, 5 to 30 min
Procedure: The renal cortex was cut into 300 µm slices with a ZQP-86 tissue slicer (Shanghai Zhisun Equipment Co., Ltd., Shanghai, China; surface area 0.15 cm^2). […] Next, the kidney slices were prepared as previously described. Two slices per well were placed into 37 °C buffer filled with oxygen for pre-incubation for 3 min and then gently moved into a 24-well cell culture plate containing 1 mL oxygenated buffer at 4 °C or 37 °C. The uptakes of ETV (10 µM), Y101 (2.0 µM), M8 (5.0 µM) and M9 (1.0 µM) were measured at 5, 10, 15 and 30 min after the treatment, respectively. […] Following incubation at the designated time, kidney slices were collected, rinsed with ice-cold buffer three times, and dried on filter paper. After weighing and homogenization (IKA-T 10 homogenizer; IKA, Staufen, Germany), the concentrations of Y101, M8, M9 and ETV of kidney slice homogenates were determined as in the description below.
as §1

[1] = ETV 10 µM, Y101 2.0 µM, M8 5.0 µM

| Structure (SMILES) | inhibition of the uptake of M8 in hOAT3-HEK293 cells (hOAT3; PRO 100 µM, ETV 10 µM) | inhibition of the uptake of M8 in kidney slices (rat kidney slices; M8 5.0 µM, PCG 0.2 and 0.5 mM, PRO 0.1 mM, PAH 0.2 and 0.5 mM, TEA 0.2 mM, 10 min, ETV 10 µM) | inhibition of the uptake of Y101 in kidney slices (rat kidney slices; Y101 2.0 µM, PCG 0.2 and 0.5 mM, PRO 0.1 mM, PAH 0.2 and 0.5 mM, TEA 0.2 mM, 10 min, ETV 10 µM) | inhibition of the uptake of ETV in hOAT3-HEK293 cells (hOAT3; ETV 10 µM) | substrate of hOAT3 (uptake in hOAT3-HEK293 vs mock-HEK293 cells) (hOAT3) | time and temperature dependence of uptake in kidney slices (rat kidney slices; Y101 2.0 µM, M8 5.0 µM) | effect on the uptake of ETV in kidney slices (rat kidney slices; [1]) |
| --- | --- | --- | --- | --- | --- | --- | --- |
| C=C1[C@H](CO)[C@@H](O)C[C@@H]1n1cnc2c(=O)[nH]c(N)nc21 [ETV, entecavir] | inhibited the uptake of M8 | significantly inhibited the uptake of M8 | did not show any inhibitory effects |  |  |  |  |
| CN(C)CCOc1ccc(CC(NC(=O)c2ccccc2)C(=O)O)cc1 (centres unmarked) [M8] |  |  |  | not inhibited | substrate of hOAT3 | temperature-dependent | not affected |
| CN(C)CCOc1ccc(C[C@H](NC(=O)c2ccccc2)C(=O)N[C@H](CO)Cc2ccccc2)cc1.Cl [Y101, N-[N-benzoyl-O-(2-dimethylaminoethyl)-l-tyrosyl]-l-phenylalaninol hydrochloride] |  |  |  | not inhibited | not a substrate of hOAT1 or hOAT3 | time- and temperature-dependent | not affected |

Source: publication PMC9967645, “OAT3 Participates in Drug–Drug Interaction between Bentysrepinine and Entecavir through Interactions with M8—A Metabolite of Bentysrepinine—In Rats and Humans In Vitro” (Molecules, 2023)
